According to patent publication US20030144243A1, “Combination of a crystalline drug form and atiotropium salt” (priority 2001, published 2003):

Assay: resistivity in solution, crystalline versus amorphous form
Type: physicochemical
Settings: compared with the amorphous form at an equivalent concentration in solution

Compound: CCNC(=O)[C@H]1O[C@@H](n2cnc3c(NCC(c4ccccc4)c4ccccc4)nc(C(=O)NCCNC(=O)NC4CCN(c5ccccn5)CC4)nc32)[C@H](O)[C@@H]1O [crystalline form, 6-[(2,2-diphenylethyl)amino]-9-(N-ethyl-β-D-ribofuranosyluronamide)-N-(2-{N′-[1-(2-pyridyl)-4-piperidyl]ureido}ethyl)-9H-purine-2-carboxamide]
- resistivity in solution: higher resistivity than the amorphous form
